Measurements: patent US10962529B1 (priority 2020, dated 2021)
“Also recorded” adds a separate entry of the source.

Columns and labels:
Type in all cases: biochemical
[1] = tested on: SARS-COV-2 total protease; experiment: High throughput FRET screening of fluorogenic dipeptide substrates; settings: for Relative fluorescence (change in the fluorescence signal in the presence of SARS-COV-2 protease): relative to FITC-Ahx-H-d-K(Dabcyl) = 100, ex 485 nm, em 535 nm; for Relative fluorescence (change in the fluorescence signal in the presence of SARS-COV-2 protease) / Fluorescence intensity increase relative to H-d peptide: 37° C.; for Fluorescence intensity increase relative to H-d peptide: H-d set as relative scale of 100%
[2] = tested on: MERS-COV protease (viral particles)
[3] = tested on: SARS-COV-2 live virus (protease); experiment: Real-time fluorescence kinetics and detection limit of FRET substrate with live virus

Substance	Relative fluorescence (change in the fluorescence signal in the presence of SARS-COV-2 protease) [1]	other results
FITC-Ahx-K-d-K(Dabcyl)	47	–
FITC-Ahx-P-P-K(Dabcyl)	55	–
FITC-Ahx-R-d-K(Dabcyl)	67	–
FITC-Ahx-F-R-K(Dabcyl)	82	Fluorescence intensity increase relative to H-d peptide [1]: 82%
FITC-Ahx-R-h-K(Dabcyl) [reference compound]	–	Increase in the fluorescence intensity in the presence of SARS-COV-2 protease ([1]; incubated at 37° C., after 3 hours): insignificant increase; also recorded: very minimum fluorescence change
FITC-Ahx-E-d-K(Dabcyl)	58	–
FITC-Ahx-H-d-K(Dabcyl)	100	Increase in the fluorescence intensity in the presence of MERS-COV virus [2]: less than 20%; Change in the fluorescence signal of the substrate [3]: no significant change; Fraction of the reaction completed within 30 minutes [3]: more than 50%; Time after which the fluorescence curve plateaus [3]: 1.5 h; Fluorescence intensity increase relative to H-d peptide [1]: 100%
FITC-Ahx-K-K-K(Dabcyl)	62	–
